# Measurements as given in publication PMC9048745, “Physicochemical investigation of a novel curcumin diethyl γ-aminobutyrate, a carbamate ester prodrug of curcumin with enhanced anti-neuroinflammatory activity” (PLoS ONE, 2022).
# Columns and labels:
# [1] = test system: TNF-α release in LPS-stimulated BV-2 microglial cells; experiment: TNF-α ELISA; type: cell-based, murine; details: 10 μM, 12 h pre-incubation, then 1 μg/mL LPS 24 h; compared with curcumin
# Protocol: BV-2 microglial cells were plated in a 24-well plate at a density of 2 × 10^5 per well for 24 h. The cells were pre-incubated for 12 h with curcumin (10 μM), CUR-2GE (10 μM), medium (DMEM), or a vehicle (0.5% DMSO). The cells were then induced with 1 μg/mL LPS for 24 h. The culture medium samples were collected and analyzed for nitric oxide (NO) and cytokines (TNF- and IL-6) using NO and enzyme-linked immunoassay (ELISA) assays, respectively.
# Quantification of TNF-α and IL-6 was performed using commercially available ELISA kits according to the manufacturer’s protocol (BioLegend, San Diego, CA, USA). The absorbance was measured at 450 nm using the microplate reader, and the amount of TNF-α and IL-6 was determined against their corresponding standard curves of TNF-α and IL-6.
# [2] = test system: BV-2 microglial cells; experiment: In vitro cellular uptake (fluorescence microscopy); type: cell-based, murine; details: BV-2 cells, 4-h incubation, 20 μM and 100 μM, compared with curcumin
# Protocol: BV-2 microglial cells were plated in a 96-well plate (Costar, NY, USA) at a density of 10,000 cells/well for 24 h. The cells were incubated in DMEM media without phenol red for 4 h in the presence of curcumin and CUR-2GE at concentrations of 20 μM and 100 μM. Then, the sample was washed with PBS and the fluorescence intensity was measured using a fluorescence microscope (Olympus IX51 inverted microscope, Tokyo, Japan).
# [3] = Solubility mimicking gastrointestinal pH, with and without 0.5% SLS; dose number (D0); type: physicochemical; details: for solubility at 1 h: thermodynamic from solid
# Protocol: For solubility mimicking gastrointestinal pH, an excess amount of CUR-2GE (1 mg) was added to a vial containing 2 mL of buffer pH 1.2, 4.5 or 6.8 with and without a surfactant (0.5% SLS). The mixture was sonicated for 1 h before orbital shaking at 37°C at 100 rpm for 1 h. After that, the mixture was centrifuged at 25°C at 14,000 rpm for 10 min prior to UPLC analysis. Experiments were performed in triplicate. The dose number (D0) at different media was determined and the BSC solubility class was assigned. (see S1 Appendix).
# (§1) S1 Appendix. Experimental procedures
# (§2) The solubility category was classified according to USP [1] as very soluble (>1000 mg/mL), freely soluble (100-1000 mg/mL), soluble (33-100 mg/mL), sparingly soluble (10-33 mg/mL), slightly soluble (1-10 mg/mL), very slightly soluble (0.1-1 mg/mL) and practically […]
# (§3) The percentage of CUR-2GE in the undissociated form at various pH values were calculated based on Henderson-Hasselbalch using Eq. 1:
# (§4) %Undissociated form = 100 - antilog (pH-pKa) x 100 (1)
# Where pH; pH value of the medium for solubilization, pKa; negative logarithm of the dissociation constant (Ka) of CUR-2GE with computed using the Marvin (Product version: 21.8.0) of ChemAxon (Budapest, Hungary) (http://www.chemaxon.com) accessed on June 2021.
# The dose number (D0) was calculated to assign the BSC solubility class, the D0 for each pH buffer solution without surfactant was calculated using the following Eq. 2: […]
# Where M0 is the highest dose strength (mg) of capsule equivalent to curcumin, the adopted dose of CUR-2GE is 927 mg equivalent to curcumin 500 mg dose. V0 is the initial gastric volume (≈250 mL), Cs is the saturation solubility of CUR-2GE in buffer solution without surfactant (mg/mL). Drugs with D0 < 1 in pH 1.2, 4.5 and 6.8 are considered as high solubility drugs. Drugs with D0 > 1 in any of the buffer solutions are classified as low solubility drugs.
# [4] = Solubility in water, buffer pH 4.5 and ethanol (UPLC); type: physicochemical; details: for solubility at 1 h: thermodynamic from solid
# Protocol: An excess amount of CUR-2GE (2 mg) was added to 2 mL of three solvents, water, phosphate buffer pH 4.5 and ethanol. The samples were sonicated at 25°C for 1 h and then placed on an orbital shaker at 100 rpm at 25°C for 1 h. The obtained mixture was then centrifuged at 25°C at 14,000 rpm for 10 min [37, 38]. The supernatant was analyzed using UPLC and the solubility of CUR-2GE in each medium was determined. Experiments were performed in triplicate. The solubility category was classified according to USP [39]. The percentage of CUR-2GE in the undissociated form at various pH values was calculated based on the Henderson-Hasselbalch equation [40] (see S1 Appendix).
# as §1, §2, §3, §4
# Where pH; pH value of the medium for solubilization, pKa; negative logarithm of the dissociation constant (Ka) of CUR-2GE with computed using the Marvin (Product version: 21.8.0) of ChemAxon (Budapest, Hungary) (http://www.chemaxon.com) accessed on June 2021. […]
# [5] = test system: BV-2 microglial cells; experiment: Cytotoxicity (MTT assay); type: cell-based, murine; details: BV-2 cells, 24 h
# Protocol: BV-2 microglial cells were cultured in DMEM supplemented with 10% fetal bovine serum, 2 mM L-glutamine, 1% penicillin/streptomycin (100 units/mL penicillin and 100 μg/mL streptomycin) at 37°C in 5% CO2. BV-2 microglial cells were plated in a 24-well plate at a density of 2 × 10^5 cells/well for 24 h. Various concentrations at 0, 1.25, 2.5, 5, 10, or 20 μM of curcumin or CUR-2GE were determined for a non-toxic concentration. After 24 h, cell viability was assessed by an MTT assay. The media was removed and replaced with an MTT solution in PBS (0.5 mg/mL). After 3-h incubation, the MTT solution was discarded, and formazan crystals formed after the reaction was dissolved in DMSO. The absorbance was then read at 540 nm using a microplate reader (CLARIOstar®, BMG Labtech, Ortenberg, Germany). The percentage of cell viability was expressed relative to the control cells. In addition, the cell viability of BV-2 microglial cells treated with LPS and a combination of LPS and the test compounds was also determined.
# [6] = M0 927 mg, V0 250 mL, Cs at 37°C without 0.5% SLS
# [7] = 25°C, <LOQ refers to less than 0.05 μg/mL
smiles,measurement,setting,value
"CCOC(=O)CCCNC(=O)Oc1ccc(/C=C/C(=O)/C=C(O)/C=C/c2ccc(OC(=O)NCCCC(=O)OCC)c(OC)c2)cc1OC [CUR-2GE, Curcumin diethyl γ-aminobutyrate]",inhibition of TNF-α release,[1],to a greater extent than curcumin
same,cellular uptake (fluorescence intensity),[2],higher fluorescence intensity than curcumin
same,"Solubility, buffer pH 1.2","[3]; 37°C, without SLS, <LOQ refers to less than 0.05 μg/mL",<LOQ
same,"D0 x 10^3 (dose number), buffer pH 1.2",[3]; [6],74.16 x 10^3
same,"D0 x 10^3 (dose number), buffer pH 4.5",[3]; [6],5.80 x 10^3
same,"D0 x 10^3 (dose number), buffer pH 6.8",[3]; [6],10.89 x 10^3
same,degradation during solubility test,[3]; all media except buffer pH 1.2 with SLS,less than 10%
same,degradation during solubility test,"[3]; buffer pH 1.2 with SLS, 37°C",more than 10%
same,solubility at 1 h,"[3]; buffer pH 4.5 with 0.5% SLS, pH 4.5, aqueous with cosolvent or surfactant or cyclodextrin, 37°C + 0.5% SLS, read-out: Solubility, buffer pH 4.5",23.35 ± 0.18 µg/mL
same,solubility at 1 h,"[3]; buffer pH 4.5 without SLS, pH 4.5, aqueous buffer, 37°C, without SLS, read-out: Solubility, buffer pH 4.5",0.64 ± 0.51 µg/mL
same,solubility at 1 h,"[3]; buffer pH 6.8 with 0.5% SLS, pH 6.8, aqueous with cosolvent or surfactant or cyclodextrin, 37°C + 0.5% SLS, read-out: Solubility, buffer pH 6.8",148 ± 38.5 µg/mL
same,solubility at 1 h,"[3]; buffer pH 6.8 without SLS, pH 6.8, aqueous buffer, 37°C, without SLS, read-out: Solubility, buffer pH 6.8",0.34 ± 0.5 µg/mL
same,solubility at 1 h,"[3]; buffers pH 1.2, 4.5 and 6.8 without surfactant, aqueous buffer, pH 1.2-6.8, 37°C, without SLS, read-out: Solubility in buffers at all tested pH",< 1 µg/mL
same,D0 (dose number) in buffers at all tested pH,"[3]; pH 1.2-6.8, 37°C, without SLS",> 1
same,"Solubility, buffer pH 4.5",[4]; [7],<LOQ
same,"Solubility, water",[4]; [7],<LOQ
same,solubility at 1 h,"[4]; ethanol, organic solvent or mixture, 25°C, read-out: Solubility, ethanol",17.9 ± 1.76 µg/mL
same,USP solubility classification,"[4]; in water, buffer pH 4.5 and ethanol, practically insoluble = <0.1 mg/mL",practically insoluble
same,solubility at 1 h,"[4]; phosphate buffer pH 4.5, pH 4.5, aqueous buffer, 25°C, <LOQ refers to less than 0.05 μg/mL, read-out: Solubility, buffer pH 4.5",< 0.05 µg/mL
same,solubility at 1 h,"[4]; water, 25°C, <LOQ refers to less than 0.05 μg/mL, read-out: Solubility, water",< 0.05 µg/mL
same,non-toxic concentrations (no cytotoxicity),[5],≤ 10 µM
